Experimental data from US20260335329A1, “PROTEIN PHOSPHATASE AGONIST AND USE” (priority 2022, published 2026).
Structures can show the parent of a compound that is named as a salt.

System: PC12 cells
Assay: Survival rate of PC12 cells in the okadaic acid-induced injury model (CCK-8)
Type: cell-based
Details: compound 5 μmol/L, 2 h, then okadaic acid 50 nmol/L, 24 h, PC12 cells; for viability at 5 µM: Rattus norvegicus, PC-12, 24 h
Method: PC12 cells were detached and counted. A cell suspension was prepared at 8.0×10^4 cells/mL. 100 μL of the cell suspension was added to each well of a 96-well cell culture plate. The 96-well cell culture plate was placed in an incubator at 37° C. in 5% CO2 and cultured for 24 h. In an experimental group, the PC12 cells were pre-incubated for 2 h in a culture medium containing a test compound (the concentrations of the compound were 0.1 μmol/L, 0.5 μmol/L, 1 μmol/L, 5 μmol/L, and 10 μmol/L respectively, and the concentrations of the compound were set according to the concentrations in Table 5, Table 6, Table 7, and Table 8). […] In addition, a negative control group (no test compound or okadaic acid added) and a model group (only okadaic acid added) were set. The 96-well cell culture plate was placed in an incubator at 37° C. in 5% CO2 and cultured for 24 h. The cells in the 96-well cell culture plate were stained with 10 μL of CCK-8 in each well, and then cultured in the incubator for 1 h to 2 h. The 96-well cell culture plate was shaken gently for 10 min to mix uniformly and remove bubbles from the 96-well cell culture plate. The OD value of each well at 2=450 nm was read by using a microplate reader. A survival rate of cells was calculated.
Calculation formula for the cell survival rate: […]
The effect of each compound on the survival rate of PC12 cells in the okadaic acid- and Aβ1-42-induced injury models was determined by the CCK-8 cell proliferation assay.

COCCc1cc2oc(=N)c3ccc(F)cc3n2n1 [Compound 17, 2-(methoxyethyl)-8-fluoro-5H-benzo[d]pyrazolo[5,1-b][1,3]oxazin-5-imine]
viability at 5 µM: 67.9%
OD value at 450 nm, Mean ± SD: 0.882 ± 0.005

CCOCc1cc2oc(=N)c3cc(F)ccc3n2n1 [Compound 15, 2-(ethoxymethyl)-7-fluoro-5H-benzo[d]pyrazolo[5,1-b][1,3]oxazin-5-imine]
viability at 5 µM: 67.1%
OD value at 450 nm, Mean ± SD: 0.872 ± 0.012

N=c1oc2cc(COC=O)nn2c2ccccc12 [Compound 5, (5-imino-5H-benzo[d]pyrazolo[5,1-b][1,3]oxazin-2-yl)methyl formate]
viability at 5 µM: 65.6%
OD value at 450 nm, Mean ± SD: 0.852 ± 0.004

COCc1cc2oc(=N)c3cc(Cl)ccc3n2n1 [Compound 12, 2-(methoxymethyl)-7-chloro-5H-benzo[d]pyrazolo[5,1-b][1,3]oxazin-5-imine]
viability at 5 µM: 66.7%
OD value at 450 nm, Mean ± SD: 0.866 ± 0.003

CSCc1cc2oc(=N)c3ccccc3n2n1 [Compound 7, 2-((methylthio)methyl)-5H-benzo[d]pyrazolo[5,1-b][1,3]oxazin-5-imine]
viability at 5 µM: 70.8%
OD value at 450 nm, Mean ± SD: 0.919 ± 0.008

COCc1cc2oc(=N)c3cc(F)ccc3n2n1 [Compound 11, 2-(methoxymethyl)-7-fluoro-5H-benzo[d]pyrazolo[5,1-b][1,3]oxazin-5-imine]
viability at 5 µM: 66%
OD value at 450 nm, Mean ± SD: 0.857 ± 0.007

COCc1cc2oc(=N)c3cc(OC)ccc3n2n1 [Compound 13, 2-(methoxymethyl)-7-methoxy-5H-benzo[d]pyrazolo[5,1-b][1,3]oxazin-5-imine]
viability at 5 µM: 67.7%
OD value at 450 nm, Mean ± SD: 0.879 ± 0.009

CCOc1ccc2c(c1)c(=N)oc1cc(COC)nn12 [Compound 14, 2-(methoxymethyl)-7-ethoxy-5H-benzo[d]pyrazolo[5,1-b][1,3]oxazin-5-imine]
viability at 5 µM: 66.7%
OD value at 450 nm, Mean ± SD: 0.866 ± 0.011

CCOCc1cc2oc(=N)c3ccccc3n2n1 [Compound 3, 2-(ethoxymethyl)-5H-benzo[d]pyrazolo[5,1-b][1,3]oxazin-5-imine]
viability at 5 µM: 66%
OD value at 450 nm, Mean ± SD: 0.858 ± 0.009

CC(=O)OCc1cc2oc(=N)c3ccccc3n2n1 [Compound 6, (5-imino-5H-benzo[d]pyrazolo[5,1-b][1,3]oxazin-2-yl)methyl acetate]
viability at 5 µM: 68.4%
OD value at 450 nm, Mean ± SD: 0.889 ± 0.007

COCc1cc2oc(=N)c3ccc(F)cc3n2n1 [Compound 10, 2-(methoxymethyl)-8-fluoro-5H-benzo[d]pyrazolo[5,1-b][1,3]oxazin-5-imine]
viability at 5 µM: 64.8%
OD value at 450 nm, Mean ± SD: 0.842 ± 0.008

COCc1cc2oc(=N)c3ccc(C)cc3n2n1 [Compound 8, 2-(methoxymethyl)-8-methyl-5H-benzo[d]pyrazolo[5,1-b][1,3]oxazin-5-imine]
viability at 5 µM: 67.5%
OD value at 450 nm, Mean ± SD: 0.877 ± 0.009

CCCOCc1cc2oc(=N)c3cc(F)ccc3n2n1 [Compound 16, 2-(propoxymethyl)-7-fluoro-5H-benzo[d]pyrazolo[5,1-b][1,3]oxazin-5-imine]
viability at 5 µM: 66.9%
OD value at 450 nm, Mean ± SD: 0.869 ± 0.005

COCCCc1cc2oc(=N)c3ccc(F)cc3n2n1 [Compound 18, 2-(methoxypropyl)-8-fluoro-5H-benzo[d]pyrazolo[5,1-b][1,3]oxazin-5-imine]
viability at 5 µM: 65.5%
OD value at 450 nm, Mean ± SD: 0.851 ± 0.007

CCc1ccc2c(=N)oc3cc(COC)nn3c2c1 [Compound 9, 2-(methoxymethyl)-8-ethyl-5H-benzo[d]pyrazolo[5,1-b][1,3]oxazin-5-imine]
viability at 5 µM: 65.6%
OD value at 450 nm, Mean ± SD: 0.852 ± 0.010

CCCOCc1cc2oc(=N)c3ccccc3n2n1 [Compound 4, 2-(propoxymethyl)-5H-benzo[d]pyrazolo[5,1-b][1,3]oxazin-5-imine]
viability at 5 µM: 65.9%
OD value at 450 nm, Mean ± SD: 0.856 ± 0.012
